Test results from patent publication US11648395B2, “Electrode assemblies for neuromodulation” (Cardionomic, Inc., priority 2018, dated 2023).

Test system: normal, non-HF ovine model
Experiment: Correlation of right and left ventricle contractility (max dP/dt) after injection, heartbeat-by-heartbeat
Assay type: in vivo
Conditions: max(dP/dt) used as surrogate for contractility, after injection (calcium: 5 mL)
Text: The correlation was a heartbeat-by-heartbeat analysis. Pressure measurements, taken by a Millar catheter comprising a MEMS pressure sensor, in units of max(dP/dt) was used as a surrogate for contractility. The first change, a dobutamine injection, provided a very high contractility increase greater than 500%. The average correlation between right ventricle contractility and left ventricle contractility was very good at 0.91, where 1.00 is a perfect correlation. Accordingly, if a subject is given a dobutamine injection, measuring changes to right ventricle contractility can provide accurate information about changes to left ventricle contractility. The first change was repeated three times. The second change, calcium injection at 5 mL, provided a contractility increase of about 20%. […] The average correlation between right ventricle contractility and left ventricle contractility using a Millar (MEMS) sensor on a catheter was very good at 0.91. The average correlation between right ventricle contractility and left ventricle contractility using a fluid-filled lumen of a Swan-Ganz catheter in communication with an external pressure sensor was also very good at 0.87. Accordingly, under certain circumstances such as measurement of an animal (normal, non-HF ovine model) model, if a subject is given a calcium injection, measuring changes to right ventricle contractility with a MEMS sensor or a fluid filled lumen can provide accurate information about changes to left ventricle contractility.

Compound: CC(CCc1ccc(O)cc1)NCCc1ccc(O)c(O)c1 (stereo not shown) [Dobutamine Injection, dobutamine]
- Contractility % Increase: >500%
- Contractility % Increase (listed as dobutamine injection): greater than 500%

Compound: calcium [Calcium Injection]
- Contractility % Increase: ~20%
- Contractility % Increase (listed as calcium injection): about 20%
